Data: the supplement of paper PMC10307832

How the values were obtained:
Experiment in all cases: relative viability (nuclei count vs DMSO), 5 days (fraction); higher = more cells survive
[1] = system: H3255
How it was run: (§1)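 Lung cancer cell lines were seeded in 1536-well plates and dosed by pin tool the next day, with either a single drug or a fixed anchor-drug dose combined with five library-drug doses (not always all listed) spaced in √10 steps. Five days later, one step fixed the cells and stained their nuclei (final 0.05% Triton X-100, 1% formaldehyde, 1 ug/ml Hoechst), and nuclei were counted on 4× images. Relative viability is the nuclei count in treated wells divided by the count in vehicle wells, and each value is the median of duplicate plates.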

[2] = system: COR-L 105
How it was run: as §1

[3] = system: SK-MES-1
How it was run: as §1

[4] = system: EMC-BAC-2
How it was run: as §1

[5] = system: NCI-H1734
How it was run: as §1

[6] = system: A-427
How it was run: as §1

[7] = system: NCI-H441
How it was run: as §1

[8] = system: NCI-H23
How it was run: as §1

[9] = system: PC-3 [JPC-3]
How it was run: as §1

[10] = system: LOU-NH91
How it was run: as §1

[11] = system: ChaGo-K-1
How it was run: as §1

[12] = system: NCI-H1975
How it was run: as §1

[13] = system: NCI-H1755
How it was run: as §1

[14] = system: NCI-H2170
How it was run: as §1

[15] = system: LK-2
How it was run: as §1

[16] = system: NCI-H596
How it was run: as §1

[17] = system: NCI-H1666
How it was run: as §1

[18] = system: HCC-366
How it was run: as §1

[19] = system: EKVX
How it was run: as §1

[20] = system: NCI-H520
How it was run: as §1

[21] = system: NCI-H1563
How it was run: as §1

[22] = system: SW 900
How it was run: as §1

Work on `COc1nc(C)cnc1NS(=O)(=O)c1cccnc1-c1ccc(-c2nnco2)cc1` [Zibotentan] + Nc1nc2[nH]cc(CCc3ccc(C(=O)N[C@@H](CCC(=O)O)C(=O)O)cc3)c2c(=O)[nH]1 [Pemetrexed] (partner 0.2 µM) yielded a relative viability ([1]; first compound 0.08 µM) of 0.635, a relative viability ([1]; first compound 0.253 µM) of 0.549 and a relative viability ([1]; first compound 0.8 µM) of 0.575. It also gave a relative viability ([1]; first compound 2.53 µM) of 0.56, a relative viability ([2]; first compound 0.08 µM) of 1.08 and a relative viability ([2]; first compound 0.253 µM) of 0.87. It also gave a relative viability ([2]; first compound 0.8 µM) of 1.21, a relative viability ([2]; first compound 2.53 µM) of 1.05 and a relative viability ([3]; first compound 0.08 µM) of 0.953. It also gave a relative viability ([3]; first compound 0.253 µM) of 0.815, a relative viability ([3]; first compound 0.8 µM) of 0.827 and a relative viability ([3]; first compound 2.53 µM) of 1.03. For the same compound, the relative viability ([4]; first compound 0.08 µM) was 0.457, the relative viability ([4]; first compound 0.8 µM) was 0.406 and the relative viability ([4]; first compound 2.53 µM) was 0.44. It also gave a relative viability ([5]; first compound 0.08 µM) of 0.404, a relative viability ([5]; first compound 0.253 µM) of 0.423 and a relative viability ([5]; first compound 0.8 µM) of 0.396. For the same compound, the relative viability ([5]; first compound 2.53 µM) was 0.44, the relative viability ([6]; first compound 0.08 µM) was 1.18 and the relative viability ([6]; first compound 0.253 µM) was 1.01. It also gave a relative viability ([6]; first compound 0.8 µM) of 0.95, a relative viability ([6]; first compound 2.53 µM) of 1.07 and a relative viability ([7]; first compound 0.08 µM) of 0.284. It also gave a relative viability ([7]; first compound 0.253 µM) of 0.298, a relative viability ([7]; first compound 0.8 µM) of 0.262 and a relative viability ([7]; first compound 2.53 µM) of 0.249. The relative viability ([8]; first compound 0.08 µM) was 0.738, the relative viability ([8]; first compound 0.253 µM) was 0.395 and the relative viability ([8]; first compound 0.8 µM) was 0.456. The relative viability ([8]; first compound 2.53 µM) was 0.915, the relative viability ([9]; first compound 0.08 µM) was 1.51 and the relative viability ([9]; first compound 0.253 µM) was 0.972. The relative viability ([9]; first compound 0.8 µM) was 1.01, the relative viability ([9]; first compound 2.53 µM) was 1.27 and the relative viability ([10]; first compound 0.08 µM) was 0.366. It also gave a relative viability ([10]; first compound 0.253 µM) of 0.357, a relative viability ([10]; first compound 0.8 µM) of 0.369 and a relative viability ([10]; first compound 2.53 µM) of 0.408. For the same compound, the relative viability ([11]; first compound 0.08 µM) was 0.261, the relative viability ([11]; first compound 0.253 µM) was 0.258 and the relative viability ([11]; first compound 0.8 µM) was 0.275. The relative viability ([11]; first compound 2.53 µM) was 0.351, the relative viability ([12]; first compound 0.08 µM) was 0.308 and the relative viability ([12]; first compound 0.253 µM) was 0.281. It also gave a relative viability ([12]; first compound 0.8 µM) of 0.289, a relative viability ([12]; first compound 2.53 µM) of 0.299 and a relative viability ([13]; first compound 0.08 µM) of 0.44. For the same compound, the relative viability ([13]; first compound 0.253 µM) was 0.453, the relative viability ([13]; first compound 0.8 µM) was 0.383 and the relative viability ([13]; first compound 2.53 µM) was 0.455. For the same compound, the relative viability ([14]; first compound 0.08 µM) was 0.264, the relative viability ([14]; first compound 0.253 µM) was 0.256 and the relative viability ([14]; first compound 0.8 µM) was 0.445. For the same compound, the relative viability ([14]; first compound 2.53 µM) was 0.248, the relative viability ([15]; first compound 0.08 µM) was 0.299 and the relative viability ([15]; first compound 0.253 µM) was 0.252. It also gave a relative viability ([15]; first compound 0.8 µM) of 0.302, a relative viability ([15]; first compound 2.53 µM) of 0.208 and a relative viability ([16]; first compound 0.08 µM) of 0.455. The relative viability ([16]; first compound 0.253 µM) was 0.429, the relative viability ([16]; first compound 0.8 µM) was 0.522 and the relative viability ([16]; first compound 2.53 µM) was 0.501. The relative viability ([17]; first compound 0.08 µM) was 0.842, the relative viability ([17]; first compound 0.253 µM) was 0.726 and the relative viability ([17]; first compound 0.8 µM) was 0.862. For the same compound, the relative viability ([17]; first compound 2.53 µM) was 0.829, the relative viability ([18]; first compound 0.08 µM) was 0.163 and the relative viability ([18]; first compound 0.253 µM) was 0.179. For the same compound, the relative viability ([18]; first compound 0.8 µM) was 0.0897, the relative viability ([18]; first compound 2.53 µM) was 0.147 and the relative viability ([19]; first compound 0.08 µM) was 0.347. It also gave a relative viability ([19]; first compound 0.253 µM) of 0.384, a relative viability ([19]; first compound 0.8 µM) of 0.372 and a relative viability ([19]; first compound 2.53 µM) of 0.463. The relative viability ([20]; first compound 0.08 µM) was 0.626, the relative viability ([20]; first compound 0.253 µM) was 0.665 and the relative viability ([20]; first compound 0.8 µM) was 0.682. For the same compound, the relative viability ([20]; first compound 2.53 µM) was 0.695, the relative viability ([21]; first compound 0.08 µM) was 0.827 and the relative viability ([21]; first compound 0.253 µM) was 0.703. It also gave a relative viability ([21]; first compound 0.8 µM) of 0.757, a relative viability ([21]; first compound 2.53 µM) of 0.66 and a relative viability ([22]; first compound 0.08 µM) of 0.503. The relative viability ([22]; first compound 0.253 µM) was 0.461, the relative viability ([22]; first compound 0.8 µM) was 0.656 and the relative viability ([22]; first compound 2.53 µM) was 0.472.
